Measured values published in US4120893A, “Anionic naphthalene thioureido toluenesulfonic acids” (American Cyanamid Company, priority 1977, dated 1978).
Structures can show the parent of a compound that is named as a salt.

Assays:
[1] = test system: whole complement in serum; test: Complement Level Reduction Test in dosed guinea pigs (capillary tube assay); format: in vivo; settings: guinea pig, intraperitoneal, 200 mg/kg
[2] = test system: late components of human complement (C3-C9); test: Test, Code 035 (C3-C9 inhibitor), lysis of EAC 142; format: cell-based; settings: in vitro; two-fold serial dilution assay; higher well number indicates higher activity
Excerpt: (§1) An active inhibitor protects C2 from C1 and C4; (ii) Test, Code 035 (C3-C9 inhibitor)--This test determines the ability of the late components of human complement (C3-C9) to lyse EAC 142 in the presence of appropriate dilutions of the test compound. An active inhibitor protects EAC 142 from lysis by human C3-C9; (iii) Test, Code 036 (C-Shunt inhibitor)--In this test human erythrocytes rendered fragile are lysed in autologous serum via the shunt pathway activated by cobra venom factor in the presence of appropriate dilutions of the test compound. Inhibition of the shunt pathway results in failure of lysis; (iv) Forssman Vasculitis Test--Here, the well known complement dependent lesion, Forssman vasculitis, is produced in guinea pigs by intradermal injection of rabbit anti-Forssman antiserum. […]
(§2) With reference to Table I, guinea pigs weighing about 300 g were dosed intravenously (i.v.) or intraperitoneally (i.p.) with 200 mg/kg of the test compound dissolved in saline and adjusted to pH 7-8. […] Percent inhibition was calculated by comparison with simultaneous controls. […]

[3] = test system: shunt pathway activated by cobra venom factor; test: Test, Code 036 (C-Shunt inhibitor), lysis of human erythrocytes in autologous serum; format: cell-based; settings: in vitro; two-fold serial dilution assay; higher well number indicates higher activity
Excerpt: as §1, §2

activated human C1 = test: Test, Code 026 (C1 inhibitor); format: biochemical; settings: in vitro; two-fold serial dilution assay; higher well number indicates higher activity
Excerpt: as §1, §2

complement system = settings: reported in cited literature; cited from earlier work
[4] = test system: hereditary angioneurotic edema; settings: The New England Journal of Medicine, 286, 808-812 (1972); cited from earlier work

## Cc1c(NC(=S)Nc2cc(S(=O)(=O)[O-])cc3cc(S(=O)(=O)[O-])cc(S(=O)(=O)[O-])c23)cc(S(=O)(=O)[O-])cc1NC(=S)Nc1cc(S(=O)(=O)[O-])cc2cc(S(=O)(=O)[O-])cc(S(=O)(=O)[O-])c12.[Na+].[Na+].[Na+].[Na+].[Na+].[Na+].[Na+] [8,8'-[(2-methyl-5-sulfo-1,3-phenylene)bis(2-thioureylene)]di-1,3,6-naphthalenetrisulfonic acid heptasodium salt]
[1]; 30 minutes
  % change in serum complement level: -40%
[1]; 60 minutes
  % change in serum complement level: -40%
[1]; 120 minutes
  % change in serum complement level: -51%
[2]
  C-Late 035* Wells: N
[3]
  Shunt Inhibition 036* Wells: N
Activated human C1
  C1 026* Wells: +7 Wells

## Cc1ccc(C(=O)Nc2ccc(S(=O)(=O)O)c3cc(S(=O)(=O)O)cc(S(=O)(=O)O)c23)cc1NC(=O)c1cccc(NC(=O)Nc2cccc(C(=O)Nc3cc(C(=O)Nc4ccc(S(=O)(=O)O)c5cc(S(=O)(=O)O)cc(S(=O)(=O)O)c45)ccc3C)c2)c1 [Suramin]
Complement system
  anticomplementary effect / inhibition of the complement system: competitive inhibitor of the complement system
[4]
  use in treatment of hereditary angioneurotic edema: used with success

## Nc1ccc2cc(S(=O)(=O)O)cc(O)c2c1N=Nc1ccc(NC(=O)Nc2ccc(N=Nc3c(N)ccc4cc(S(=O)(=O)O)cc(O)c34)c(S(=O)(=O)O)c2)cc1S(=O)(=O)O [chlorazol fast pink, 3,3'-ureylenebis-[6-(2-amino-8-hydroxy-6-sulfo-1-naphthylazo)]benzenesulfonic acid, tetrasodium salt]
Complement system
  anticomplementary effect / inhibition of the complement system: anticomplementary effect

## NCCCCCC(=O)O [epsilon-aminocaproic acid]
[4]
  use in treatment of hereditary angioneurotic edema: used with success

## NC[C@H]1CC[C@H](C(=O)O)CC1 [tranexamic acid]
[4]
  use in treatment of hereditary angioneurotic edema: used with success

## heparin
Complement system
  anticomplementary effect / inhibition of the complement system: anticomplementary effect
